Test results: paper PMC5360416 (Journal of pharmaceutical sciences, 2014)
Counter-ions that a name gives are not always drawn.

Tests used:
[1] = stated without reference, cited from earlier work
[2] = test system: MCT induced PAH rats; test: Acute hemodynamic efficacy in MCT induced PAH rats; type: in vivo, rat; conditions: 3 mg/kg
[3] = Pharmacokinetics in adult male SD rats; type: in vivo, rat; conditions: 6 mg/kg; for AUC(0-inf) / Cmax: male, Sprague-Dawley, rat, plasma
[4] = Short-term lung toxicity, bronchoalveolar lavage; type: in vivo, rat; conditions: 12 hrs
[5] = test system: rat PASM cells
[6] = 0.1% SDS, compared with CAR-micelles and plain drug

| SMILES | solubility in methanol ([1]; methanol) | solubility in water ([1]; water) | reduction in MPAP, IT versus IV ([2]; plain fasudil IT) | reduction in MSAP ([2]; plain fasudil IV and IT) | time after which no plasma concentration was shown ([3]; IT) | time after which no plasma concentration was shown ([3]; IV) | AUC(0-inf) ([3]; inhaled or intranasal) | Cmax ([3]; inhaled or intranasal) | AUC(0-inf) ([3]; iv) | Cmax ([3]; iv) | ALP level in BAL fluid [4, 6] | LDH level in BAL fluid [4, 6] | wet lung weight compared to saline treated rats ([4]; intratracheal, CAR-micelles equivalent to 6 mg/kg fasudil, SDS 0.1%) | cell viability [5] |
| --- | --- | --- | --- | --- | --- | --- | --- | --- | --- | --- | --- | --- | --- | --- |
| O=S(=O)(c1cccc2cnccc12)N1CCCNCC1 [Fasudil, Fasudil hydrochloride] | moderately soluble | ~200 mg/mL | more pronounced reduction in MPAP than IV fasudil | significant reduction | 6 h | 2 h | 21700 ± 4080 ng·h/mL | 1450 ± 580 ng/mL | 27600 ± 3910 ng·h/mL | 3780 ± 230 ng/mL | – | – | – | – |
| CCCCCCCCCCCCOS(=O)(=O)[O-].[Na+] [SDS, sodium dodecyl sulfate] | – | – | – | – | – | – | – | – | – | – | elevated levels | elevated levels | two-fold | ~16% |
